Data on 28 molecules can be found in patent publication US20240366598A1, “GLUCOSE-DEPENDENT INSULINOTROPIC POLYPEPTIDE RECEPTOR ANTAGONISTS AND USES THEREOF” (Pfizer Inc., priority 2023, published 2024).

The target of the test is T1, human Glucose-dependent Insulinotropic Polypeptide Receptor (hGIPR) (Homo sapiens, UniProt P48546).
T1 sequence (P48546 22-466): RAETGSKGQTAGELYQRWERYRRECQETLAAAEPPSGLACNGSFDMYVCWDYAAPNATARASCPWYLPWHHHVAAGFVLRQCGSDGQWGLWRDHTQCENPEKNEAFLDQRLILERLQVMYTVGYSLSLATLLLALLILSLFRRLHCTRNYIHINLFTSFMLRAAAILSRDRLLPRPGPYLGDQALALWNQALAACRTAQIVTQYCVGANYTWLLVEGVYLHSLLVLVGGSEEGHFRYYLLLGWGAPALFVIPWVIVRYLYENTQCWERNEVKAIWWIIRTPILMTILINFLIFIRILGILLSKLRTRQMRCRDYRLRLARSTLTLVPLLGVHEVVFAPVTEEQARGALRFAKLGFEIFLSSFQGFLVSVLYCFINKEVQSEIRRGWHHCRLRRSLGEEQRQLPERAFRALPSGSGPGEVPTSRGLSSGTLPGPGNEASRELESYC
The experiment in a line: Functional in vitro GIPR antagonist potency assay (cAMP HTRF, CHO-K1 cells stably expressing hGIPR, hGIP stimulation at about EC80). The format is cell-based. The following applies: geometric mean, hGIP at estimated EC80, examples marked ^2: overall geometric mean of multiple forms (including salts) tested. The gist of the method:
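HTRF quantification of cAMP after stimulation with hGIP at an estimated EC80 for 30 min at 37 °C. Before stimulation, hGIPR-expressing CHO-K1 cells were exposed 2 h to test compound in IBMX-containing buffer, with 0.5% DMSO final. Percent effect is referenced to agonist alone (0%) and to 80 μM of a reference antagonist (100%), and runs required the agonist concentration to fall within the on-the-day EC50–EC90.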
As to `O=C(O)c1ccc(-c2ccc(NC(=O)[C@H]3CCCN3C(=O)NCc3ccc(C(F)(F)F)cc3)nc2)cc1` [Example 153, 4-(6-{[1-({[4-(trifluoromethyl)phenyl]methyl}carbamoyl)-D-prolyl]amino}pyridin-3-yl)benzoic acid], the IC50 is 11 nM.
As to `CC(C)c1ccc(NC(=O)N2C[C@H]3C[C@H]3[C@@H]2C(=O)Nc2ccc(-c3cccc(C(=O)O)c3)cc2)cc1` [Example 154, 4′-{[(1R,2R,5S)-3-{[4-(propan-2-yl)phenyl]carbamoyl}-3-azabicyclo[3.1.0]hexane-2-carbonyl]amino}[1,1′-biphenyl]-3-carboxylic acid], the IC50 is 58 nM.
With `O=C(O)c1ccc(-c2ccc(NC(=O)[C@H]3CCCN3C(=O)Nc3ccc(CC(F)(F)F)cc3)cc2)cc1` [Example 155, 4′-[(1-{[4-(2,2,2-trifluoroethyl)phenyl]carbamoyl}-D-prolyl)amino][1,1′-biphenyl]-4-carboxylic acid], the IC50 was 22 nM.
Next, `COc1cc(C(=O)O)ccc1-c1ccc(NC(=O)[C@H]2CCCN2C(=O)Nc2ccc(C(C)C)c(C)c2)nc1` [Example 156, 3-methoxy-4-{6-[(1-{[3-methyl-4-(propan-2-yl)phenyl]carbamoyl}-D-prolyl)amino]pyridin-3-yl}benzoic acid]: 45 nM; `O=C(O)c1ccc(-c2ccc(NC(=O)[C@H]3CCCN3C(=O)NCc3ccc(C(F)(F)F)cc3)cc2)cc1` [Example 157, 4′-{[1-({[4-(trifluoromethyl)phenyl]methyl}carbamoyl)-D-prolyl]amino}[1,1′-biphenyl]-4-carboxylic acid]: 10 nM.
For `COc1cc(-c2ccc(NC(=O)[C@H]3CCCN3C(=O)Nc3ccc(C(F)(F)F)c(C)c3)cc2)ccc1C(=O)O` [Example 158, 3-methoxy-4′-[(1-{[3-methyl-4-(trifluoromethyl)phenyl]carbamoyl}-D-prolyl)amino][1,1′-biphenyl]-4-carboxylic acid], the IC50 is 7.7 nM.
For `CC(C)c1ccc(NC(=O)N2C[C@@H]3C[C@@H]3[C@@H]2C(=O)Nc2ccc(-c3cccc(C(=O)O)c3)cc2)cc1` [Example 159, 4′-{[(1S,2R,5R)-3-{[4-(propan-2-yl)phenyl]carbamoyl}-3-azabicyclo[3.1.0]hexane-2-carbonyl]amino}[1,1′-biphenyl]-3-carboxylic acid], the IC50 was 110 nM.
Next, `Cc1cc(NC(=O)[C@H]2CCCN2C(=O)Nc2ccc(C3CCC3)cc2)cnc1-c1ccc(C(=O)O)cc1` [Example 160, 4-[5-({1-[(4-cyclobutylphenyl)carbamoyl]-D-prolyl}amino)-3-methylpyridin-2-yl]benzoic acid]: 75 nM.
With `O=C(O)c1ccc2cc(NC(=O)[C@H]3CCCN3C(=O)Nc3ccc(C(F)(F)F)cc3)ccc2c1` [Example 161, 6-[(1-{[4-(trifluoromethyl)phenyl]carbamoyl}-D-prolyl)amino]naphthalene-2-carboxylic acid], the 50% inhibitory concentration (IC50) is 77 nM.
For `Cc1cc(NC(=O)N2CCC[C@@H]2C(=O)Nc2ccc3cc(C(=O)O)ccc3c2)ccc1C(C)C` [Example 162, 6-[(1-{[3-methyl-4-(propan-2-yl)phenyl]carbamoyl}-D-prolyl)amino]naphthalene-2-carboxylic acid], the IC50 was 44 nM.
Consider `Cc1cc(NC(=O)N2CCC[C@@H]2C(=O)Nc2ccc(-c3ccc(C(=O)O)cc3)nc2)ccc1C(F)(F)F` [Example 163, 4-{5-[(1-{[3-methyl-4-(trifluoromethyl)phenyl]carbamoyl}-D-prolyl)amino]pyridin-2-yl}benzoic acid], for which the IC50 was 19 nM.
Consider `C[C@H](NC(=O)N1CCC[C@@H]1C(=O)Nc1ccc(-c2ccc(C(=O)O)cc2)cc1)c1ccc(C(F)(F)F)cc1` [Example 164, 4′-{[1-({(1S)-1-[4-(trifluoromethyl)phenyl]ethyl}carbamoyl)-D-prolyl]amino}[1,1′-biphenyl]-4-carboxylic acid], for which the IC50 was 22 nM.
For the molecule `Cc1cc(NC(=O)N2CCC[C@@H]2C(=O)Nc2ccc(-c3ccc(C(=O)O)nc3C)cc2)ccc1C(F)(F)F` [Example 167, 6-methyl-5-{4-[(1-{[3-methyl-4-(trifluoromethyl)phenyl]carbamoyl}-D-prolyl)amino]phenyl}pyridine-2-carboxylic acid], the half-inhibitory concentration (IC50) is 7.2 nM.
As to `Cc1cc(NC(=O)N2CCC[C@@H]2C(=O)Nc2ccc(-c3ccc(C(=O)O)nc3C)cc2)ccc1C(C)C` [Example 168, 6-methyl-5-{4-[(1-{[3-methyl-4-(propan-2-yl)phenyl]carbamoyl}-D-prolyl)amino]phenyl}pyridine-2-carboxylic acid], the IC50 was 15 nM.
Next, `Cc1nc(C(=O)O)ccc1-c1ccc(NC(=O)[C@H]2CCCN2C(=O)Nc2ccc(C(F)(F)F)cc2)cc1` [Example 169, 6-methyl-5-{4-[(1-{[4-(trifluoromethyl)phenyl]carbamoyl}-D-prolyl)amino]phenyl}pyridine-2-carboxylic acid]: 49 nM; `COc1cc(-c2ccc(NC(=O)[C@H]3CCCN3C(=O)Nc3ccc(C(F)(F)F)cc3)cc2)ccc1C(=O)O` [Example 170, 3-methoxy-4′-[(1-{[4-(trifluoromethyl)phenyl]carbamoyl}-D-prolyl)amino][1,1′-biphenyl]-4-carboxylic acid]: 40 nM.
Next, `Cc1cc(C(=O)O)ccc1-c1ccc(NC(=O)[C@H]2CCCN2C(=O)Nc2ccc(C(C)C)cc2)nc1` [Example 171, 3-methyl-4-{6-[(1-{[4-(propan-2-yl)phenyl]carbamoyl}-D-prolyl)amino]pyridin-3-yl}benzoic acid]: 16 nM; `Cc1cc(C(=O)O)ccc1-c1ccc(NC(=O)[C@H]2CCCN2C(=O)Nc2ccc(C(F)(F)F)cc2)nc1` [Example 172, 3-methyl-4-{6-[(1-{[4-(trifluoromethyl)phenyl]carbamoyl}-D-prolyl)amino]pyridin-3-yl}benzoic acid]: 31 nM; `Cc1cc(C(=O)O)ccc1-c1ccc(NC(=O)[C@H]2CCCN2C(=O)Nc2ccc(C(C)C)c(C)c2)nc1` [Example 173, 3-methyl-4-{6-[(1-{[3-methyl-4-(propan-2-yl)phenyl]carbamoyl}-D-prolyl)amino]pyridin-3-yl}benzoic acid]: 4.4 nM.
Take `Cc1cc(NC(=O)N2CCC[C@@H]2C(=O)Nc2ccc(-c3ccc(C(=O)O)nc3)cc2)ccc1C1CC1` [Example 174, 5-[4-({1-[(4-cyclopropyl-3-methylphenyl)carbamoyl]-D-prolyl}amino)phenyl]pyridine-2-carboxylic acid]: the half-maximal inhibitory concentration (IC50) is 49 nM.
As for `Cc1cc(NC(=O)N2CCC[C@@H]2C(=O)Nc2ccc(-c3cccc(C(=O)O)c3)cn2)ccc1C(F)(F)F` [Example 175, 3-{6-[(1-{[3-methyl-4-(trifluoromethyl)phenyl]carbamoyl}-D-prolyl)amino]pyridin-3-yl}benzoic acid], the IC50 is 8.3 nM.
For `Cc1cc(C(=O)O)ccc1-c1ccc(NC(=O)[C@H]2CCCN2C(=O)Nc2ccc(C(C)C)c(F)c2)nc1` [Example 176, 4-{6-[(1-{[3-fluoro-4-(propan-2-yl)phenyl]carbamoyl}-D-prolyl)amino]pyridin-3-yl}-3-methylbenzoic acid], the half-maximal inhibitory concentration (IC50) was 11 nM.
Next, `Cc1cc(NC(=O)N2CCC[C@@H]2C(=O)Nc2ccc(-c3ccc(C(=O)O)cc3)cn2)ccc1C(F)(F)F` [Example 177, 4-{6-[(1-{[3-methyl-4-(trifluoromethyl)phenyl]carbamoyl}-D-prolyl)amino]pyridin-3-yl}benzoic acid]: 8.2 nM; `O=C(O)c1ccc(-c2ccc(NC(=O)[C@H]3CCCN3C(=O)Nc3ccc(C4(C(F)(F)F)CC4)cc3)nc2)cc1` [Example 178, 4-(6-{[1-({4-[1-(trifluoromethyl)cyclopropyl]phenyl}carbamoyl)-D-prolyl]amino}pyridin-3-yl)benzoic acid]: 11 nM; `Cc1cc(NC(=O)N2CCC[C@@H]2C(=O)Nc2ccc(-c3ccc(C(=O)O)cc3)cn2)ccc1C1CC1` [Example 179, 4-[6-({1-[(4-cyclopropyl-3-methylphenyl)carbamoyl]-D-prolyl}amino)pyridin-3-yl]benzoic acid]: 3.7 nM.
Consider `Cc1cc(NC(=O)N2CCC[C@@H]2C(=O)Nc2ccc(-c3ccc(C(=O)O)cn3)cc2)ccc1C(C)C` [Example 180, 6-{4-[(1-{[3-methyl-4-(propan-2-yl)phenyl]carbamoyl}-D-prolyl)amino]phenyl}pyridine-3-carboxylic acid], for which the IC50 was 53 nM.
The result for `O=C(O)c1cccc(-c2ccc(NC(=O)[C@H]3CCCN3C(=O)Nc3ccc(C(F)(F)F)cc3)nc2)c1` [Example 181, 3-{6-[(1-{[4-(trifluoromethyl)phenyl]carbamoyl}-D-prolyl)amino]pyridin-3-yl}benzoic acid] reads 24 nM; that for `CC(C)c1ccc(NC(=O)N2CCC[C@@H]2C(=O)Nc2ccc(-c3ccc(C(=O)O)cn3)cc2)cc1F` [Example 182, 6-{4-[(1-{[3-fluoro-4-(propan-2-yl)phenyl]carbamoyl}-D-prolyl)amino]phenyl}pyridine-3-carboxylic acid], 23 nM.

In general, IC50 refers to the concentration needed to halve the response being measured.
